Measurements taken from patent US10294248B2, “Beta-lactamase inhibitors” (VenatoRx Pharmaceuticals, Inc., priority 2013, dated 2019).

Experiments:
[1] = test system: P. aeruginosa Ps296 expressing VIM-2; assay: Broth microdilution MIC, P. aeruginosa Ps296 VIM-2; type: cell-based; conditions: fixed 4 μg/mL meropenem; CAMHB, 16-20 hours at 37° C.
Procedure, shortened: (§1)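 Visual MIC readout follows 16-20 h incubation at 37° C. Final compound range spans 32 down to 0.25 μg/ml in two-fold steps, each well also carrying a β-lactam at a static 4 μg/ml, with inoculation done by the CLSI microdilution method in cation-adjusted Mueller Hinton broth.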

[2] = test system: E. cloacae 144200 expressing Class C P99 AmpC; assay: Broth microdilution MIC, E. cloacae 144200 p99 AmpC; type: cell-based; conditions: fixed 4 μg/mL ceftazidime; CAMHB, 16-20 hours at 37° C.
Procedure, shortened: as §1

[3] = target: T1, p99 AmpC β-lactamase (Class C) (Enterobacter cloacae, UniProt P05364); assay: β-Lactamase inhibition, p99 AmpC; type: biochemical
T1 construct: made in house; host or cells: E. coli BL21(DE3)
T1 sequence (P05364 21-381): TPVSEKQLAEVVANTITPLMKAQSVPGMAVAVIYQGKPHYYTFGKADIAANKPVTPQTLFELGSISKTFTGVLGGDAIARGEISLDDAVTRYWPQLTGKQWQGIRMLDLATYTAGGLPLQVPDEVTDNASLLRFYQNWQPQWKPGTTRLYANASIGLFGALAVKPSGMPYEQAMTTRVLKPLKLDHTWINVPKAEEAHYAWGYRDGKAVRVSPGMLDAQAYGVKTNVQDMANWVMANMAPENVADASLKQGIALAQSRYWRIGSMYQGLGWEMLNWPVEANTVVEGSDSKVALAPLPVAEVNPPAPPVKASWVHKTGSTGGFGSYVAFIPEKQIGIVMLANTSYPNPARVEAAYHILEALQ

[4] = test system: K. pneumoniae 156319 expressing KPC-3; assay: Broth microdilution MIC, K. pneumoniae 156319 KPC-3; type: cell-based; conditions: fixed 4 μg/mL meropenem; CAMHB, 16-20 hours at 37° C.
Procedure, shortened: as §1

[5] = target: T2, SHV-5 β-lactamase (Class A ESBL) (Klebsiella pneumoniae, UniProt P0A3M1); assay: β-Lactamase inhibition, SHV-5; type: biochemical
T2 construct: made in house; host or cells: E. coli BL21(DE3)
T2 sequence (P0A3M1 22-286): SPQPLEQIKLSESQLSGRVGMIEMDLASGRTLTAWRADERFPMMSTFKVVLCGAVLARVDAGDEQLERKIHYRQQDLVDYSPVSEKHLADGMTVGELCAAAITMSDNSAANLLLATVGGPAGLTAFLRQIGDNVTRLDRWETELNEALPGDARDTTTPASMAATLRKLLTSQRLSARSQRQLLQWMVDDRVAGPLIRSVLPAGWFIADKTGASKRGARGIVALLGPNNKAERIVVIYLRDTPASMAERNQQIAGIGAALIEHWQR
Procedure, shortened: (§2)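 Untagged enzyme from E. coli BL21(DE3), purified by Capto S then Superdex 75; 15 min 37 °C preincubation with inhibitor; KPC-2 read with imipenem at 300 nm, SHV-5 with cefotaxime at 260 nm, OXA-1 with nitrocefin 100 μM final at 486 nm; 10 min kinetic read; IC50 vs uninhibited wells.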

[6] = test system: S. aureus MSSA-7 producing penicillinase PC-1; assay: Broth microdilution MIC, S. aureus MSSA-7 PC-1; type: cell-based; conditions: fixed 4 μg/mL piperacillin; CAMHB, 16-20 hours at 37° C.
Procedure, shortened: as §1

[7] = test system: K. pneumoniae A-1797 expressing KPC-2 and VIM-4; assay: Broth microdilution MIC, K. pneumoniae A-1797 KPC-2/VIM-4; type: cell-based; conditions: fixed 4 μg/mL meropenem; CAMHB, 16-20 hours at 37° C.
Procedure, shortened: as §1

[8] = target: T3, OXA-1 β-lactamase (Class D oxacillinase) (Escherichia coli, UniProt P13661); assay: β-Lactamase inhibition, OXA-1; type: biochemical; conditions: nitrocefin 100 μM, 486 nm; 15 min preincubation at 37° C., PBS pH 7.4
T3 construct: made in house; host or cells: E. coli BL21(DE3)
T3 sequence (P13661 26-276): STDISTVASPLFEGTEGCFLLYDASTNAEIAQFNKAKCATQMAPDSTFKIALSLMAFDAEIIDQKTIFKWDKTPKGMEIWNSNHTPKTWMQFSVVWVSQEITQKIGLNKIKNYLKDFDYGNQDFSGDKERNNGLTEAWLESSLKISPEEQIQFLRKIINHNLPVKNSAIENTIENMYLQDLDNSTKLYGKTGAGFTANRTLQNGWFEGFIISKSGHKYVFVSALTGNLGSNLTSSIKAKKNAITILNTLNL
Procedure, shortened: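 Compounds are mixed with purified, untagged recombinant β-lactamase and held 15 min at 37 °C. Substrate is then added: nitrocefin (100 μM final) for OXA-1, imipenem for KPC-2, cefotaxime for SHV-5. Absorbance is followed immediately, and percent inhibition per concentration gives the IC50.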

[9] = target: T4, VIM-2 metallo-β-lactamase (Class B) (Pseudomonas aeruginosa, UniProt Q9K2N0); assay: β-Lactamase inhibition, VIM-2; type: biochemical; conditions: nitrocefin 100 μM, 486 nm; 15 min preincubation at 37° C., PBS pH 7.4
T4 construct: made in house; host or cells: E. coli BL21(DE3)
Procedure, shortened: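 Metallo-β-lactamase VIM-2 activity was tracked spectrophotometrically at 486 nm with 100 μM nitrocefin over 10 min, following 15 min preincubation with compound at 37 °C; inhibition was calculated per concentration.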

[10] = test system: E. coli ESBL4 expressing CTX-M-15; assay: Broth microdilution MIC, E. coli ESBL4 CTX-M-15; type: cell-based; conditions: fixed 4 μg/mL ceftazidime; CAMHB, 16-20 hours at 37° C.
Procedure, shortened: as §1

[11] = target: T5, KPC-2 β-lactamase (Class A carbapenemase) (Klebsiella pneumoniae, UniProt Q9F663); assay: β-Lactamase inhibition, KPC-2; type: biochemical; conditions: imipenem substrate, 300 nm; 15 min preincubation at 37° C., PBS pH 7.4
T5 construct: made in house; host or cells: E. coli BL21(DE3)
T5 sequence (Q9F663 25-293, looked up): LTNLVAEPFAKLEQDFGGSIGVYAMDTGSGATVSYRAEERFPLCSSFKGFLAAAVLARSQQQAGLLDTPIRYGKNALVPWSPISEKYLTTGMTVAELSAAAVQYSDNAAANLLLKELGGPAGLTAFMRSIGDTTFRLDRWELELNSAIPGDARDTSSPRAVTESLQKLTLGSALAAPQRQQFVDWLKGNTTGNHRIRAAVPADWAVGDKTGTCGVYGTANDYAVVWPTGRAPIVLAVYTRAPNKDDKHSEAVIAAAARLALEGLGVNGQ
Procedure, shortened: as §2

Compound | MIC of example compound in presence of fixed β-lactam: Fixed Mero, P. aerug. Ps296 VIM-2 [1] | MIC of example compound in presence of fixed β-lactam: Fixed CAZ, E. cl. 144200 p99 AmpC [2] | IC50 [3] [nM] | MIC of example compound in presence of fixed β-lactam: Fixed Mero, K. P. 156319 KPC-3 [4] | IC50 [5] [nM] | MIC of example compound in presence of fixed β-lactam: Fixed Pip, S. aureus MSSA-7 PC-1 [6] | MIC of example compound in presence of fixed β-lactam: Fixed Mero, K. P. A-1797 KPC-2 VIM-4 [7] | IC50 [8] [nM] | IC50 [9] [nM] | MIC of example compound in presence of fixed β-lactam: Fixed CAZ, E. coli ESBL4 CTX-M-15 [10] | IC50 [11] [nM]
N#CCN1CCC(CC(=O)N[C@H]2Cc3cccc(C(=O)O)c3OB2O)CC1 [Example 35, 3-[2-(1-Cyanomethyl-piperidin-4-yl)-acetylamino]-2-hydroxy-3,4-dihydro-2H-benzo[e][1,2]oxaborinine-8-carboxylic acid] | A (an MIC of the fixed β-lactam antibiotic in the presence of >32 μg/mL of a β-lactamase inhibitor) | C (the MIC in the presence of <4 μg/mL of a β-lactamase inhibitor) | 100 to 1000 | B (the MIC in the presence of between 8 and 32 μg/mL of a β-lactamase inhibitor) | 100 to 1000 | C (the MIC in the presence of <4 μg/mL of a β-lactamase inhibitor) | B (the MIC in the presence of between 8 and 32 μg/mL of a β-lactamase inhibitor) | 100 to 1000 | 10000 to 100000 | C (the MIC in the presence of <4 μg/mL of a β-lactamase inhibitor) | 100 to 1000
NCC1CCN(CC(=O)N[C@H]2Cc3cccc(C(=O)O)c3OB2O)CC1 [Example 5, 3-[2-(4-Aminomethyl-piperidin-1-yl)-acetylamino]-2-hydroxy-3,4-dihydro-2H-benzo[e][1,2]oxaborinine-8-carboxylic acid] | B (the MIC in the presence of between 8 and 32 μg/mL of a β-lactamase inhibitor) | C (the MIC in the presence of <4 μg/mL of a β-lactamase inhibitor) | < 100 | C (the MIC in the presence of <4 μg/mL of a β-lactamase inhibitor) | 1000 to 10000 | B (the MIC in the presence of between 8 and 32 μg/mL of a β-lactamase inhibitor) | C (the MIC in the presence of <4 μg/mL of a β-lactamase inhibitor) | < 100 | 100 to 1000 | C (the MIC in the presence of <4 μg/mL of a β-lactamase inhibitor) | < 100
COC1CN(CC(=O)N[C@H]2Cc3cccc(C(=O)O)c3OB2O)CCC1N (some centres unmarked) [Example 21, 3-[2-(4-Amino-3-methoxy-piperidin-1-yl)-acetylamino]-2-hydroxy-3,4-dihydro-2H-benzo[e][1,2]oxaborinine-8-carboxylic acid] | B (the MIC in the presence of between 8 and 32 μg/mL of a β-lactamase inhibitor) | C (the MIC in the presence of <4 μg/mL of a β-lactamase inhibitor) | < 100 | C (the MIC in the presence of <4 μg/mL of a β-lactamase inhibitor) | < 100 | C (the MIC in the presence of <4 μg/mL of a β-lactamase inhibitor) | A (an MIC of the fixed β-lactam antibiotic in the presence of >32 μg/mL of a β-lactamase inhibitor) | < 100 | 1000 to 10000 | C (the MIC in the presence of <4 μg/mL of a β-lactamase inhibitor) | 100 to 1000
O=C(CNC1CCNCC1)N[C@H]1Cc2cccc(C(=O)O)c2OB1O [Example 40, 2-Hydroxy-3-[2-(piperidin-4-ylamino)-acetylamino]-3,4-dihydro-2H-benzo[e][1,2]oxaborinine-8-carboxylic acid] | C (the MIC in the presence of <4 μg/mL of a β-lactamase inhibitor) | C (the MIC in the presence of <4 μg/mL of a β-lactamase inhibitor) | < 100 | B (the MIC in the presence of between 8 and 32 μg/mL of a β-lactamase inhibitor) | < 100 | C (the MIC in the presence of <4 μg/mL of a β-lactamase inhibitor) | B (the MIC in the presence of between 8 and 32 μg/mL of a β-lactamase inhibitor) | < 100 | 100 to 1000 | C (the MIC in the presence of <4 μg/mL of a β-lactamase inhibitor) | 100 to 1000
NCC(=O)N1CCN(CC(=O)N[C@H]2Cc3cccc(C(=O)O)c3OB2O)CC1 [Example 17, 3-{2-[4-(2-Amino-acetyl)-piperazin-1-yl]-acetylamino}-2-hydroxy-3,4-dihydro-2H-benzo[e][1,2]oxaborinine-8-carboxylic acid] | A (an MIC of the fixed β-lactam antibiotic in the presence of >32 μg/mL of a β-lactamase inhibitor) | C (the MIC in the presence of <4 μg/mL of a β-lactamase inhibitor) | < 100 | B (the MIC in the presence of between 8 and 32 μg/mL of a β-lactamase inhibitor) | < 100 | C (the MIC in the presence of <4 μg/mL of a β-lactamase inhibitor) | A (an MIC of the fixed β-lactam antibiotic in the presence of >32 μg/mL of a β-lactamase inhibitor) | < 100 | 1000 to 10000 | B (the MIC in the presence of between 8 and 32 μg/mL of a β-lactamase inhibitor) | 100 to 1000
O=C(O)c1cccc2c1OB(O)[C@@H](NC(=O)C1CNCCN1)C2 (some centres unmarked) [Example 50, 2-Hydroxy-3-[(piperazine-2-carbonyl)-amino]-3,4-dihydro-2H-benzo[e][1,2]oxaborinine-8-carboxylic acid] | C (the MIC in the presence of <4 μg/mL of a β-lactamase inhibitor) | C (the MIC in the presence of <4 μg/mL of a β-lactamase inhibitor) | < 100 | C (the MIC in the presence of <4 μg/mL of a β-lactamase inhibitor) | < 100 | C (the MIC in the presence of <4 μg/mL of a β-lactamase inhibitor) | A (an MIC of the fixed β-lactam antibiotic in the presence of >32 μg/mL of a β-lactamase inhibitor) | < 100 | 1000 to 10000 | C (the MIC in the presence of <4 μg/mL of a β-lactamase inhibitor) | < 100
O=C(CN1CCNCC1=O)N[C@H]1Cc2cccc(C(=O)O)c2OB1O [Example 8, 2-Hydroxy-3-[2-(2-oxo-piperazin-1-yl)-acetylamino]-3,4-dihydro-2H-benzo[e][1,2]oxaborinine-8-carboxylic acid] | A (an MIC of the fixed β-lactam antibiotic in the presence of >32 μg/mL of a β-lactamase inhibitor) | C (the MIC in the presence of <4 μg/mL of a β-lactamase inhibitor) | < 100 | C (the MIC in the presence of <4 μg/mL of a β-lactamase inhibitor) | 10000 to 100000 | C (the MIC in the presence of <4 μg/mL of a β-lactamase inhibitor) | A (an MIC of the fixed β-lactam antibiotic in the presence of >32 μg/mL of a β-lactamase inhibitor) | < 100 | 1000 to 10000 | C (the MIC in the presence of <4 μg/mL of a β-lactamase inhibitor) | 100 to 1000
